US6034108A, “Method for treating mental retardation” (Eli Lilly and Company, priority 1998, dated 2000)

Tests used:
m4 receptors = assay: cAMP formation in CHO m4 cells treated with pertussis toxin; type: cell-based
Source text: Muscarinic agonists stimulate the formation of cAMP up to 10 fold in CHO m4 cells treated with pertussisi toxin and the pharmacology is consistent with the mediation by m4 receptors. Eckols K. Soc. Neurosci Abstr., 21:2040 (1995).

[1] = biological target: T1, m2 receptors in brain stem (Rattus norvegicus, UniProt P10980); assay: 3H-guinuclidinyl benzilate binding to m2 receptors in brain stem
T1 sequence (P10980 1-466): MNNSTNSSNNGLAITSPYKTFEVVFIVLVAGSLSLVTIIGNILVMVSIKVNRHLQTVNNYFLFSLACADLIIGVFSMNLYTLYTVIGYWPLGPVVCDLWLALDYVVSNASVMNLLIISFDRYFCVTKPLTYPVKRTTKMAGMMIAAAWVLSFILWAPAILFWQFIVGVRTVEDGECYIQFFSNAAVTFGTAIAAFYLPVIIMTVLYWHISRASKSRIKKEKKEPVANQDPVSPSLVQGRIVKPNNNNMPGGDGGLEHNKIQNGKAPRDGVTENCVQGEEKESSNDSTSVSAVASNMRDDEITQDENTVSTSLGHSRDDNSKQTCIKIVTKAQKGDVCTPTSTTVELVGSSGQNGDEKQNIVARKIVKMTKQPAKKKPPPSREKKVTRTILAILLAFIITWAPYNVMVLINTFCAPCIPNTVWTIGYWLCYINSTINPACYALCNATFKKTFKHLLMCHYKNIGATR

`CCCCCCOc1nsnc1C1=CCCN(C)C1` [Xanomeline, 3-(4-hexyloxy-1,2,5-thiadiazol-3-yl)-1,2,5,6-tetrahydro-1-methylpyridine] was tested, and the “stimulation of the formation of cAMP” value (m4 receptors) was “efficaciously and potently stimulated the formation of cAMP” and the Ki [1] was 24 nM.
